Experimental data from patent US8592374B2, “Neurotrophic peptides” (Research Foundation for Mental Hygiene, Inc., priority 2007, dated 2013).
“Also recorded” adds a separate entry of the source. Peptide text beside a SMILES is read from it. * marks the point of attachment. Adamantane1carbonyl = O=C(C12CC3CC(CC(C3)C1)C2)*; X1 = NC(=O)C12CC3CC(CC(N*)(C3)C1)C2

Key:
[1] = General examination (physical state, body weight, exploratory activity, swim speed, floating); assay type: in vivo, mice; settings: 25 nmol/day for 35 days
Method: All in vivo studies for characterization of compounds (stereology and behavioral analysis) were performed on 8-10-month-old female retired breeders of C57Bl6 background. Animals were acclimatized for at least 3 weeks to exclude occasional pregnant mice from the studies. Mice were group-housed (3 animals per cage) with a 12:12 hours light/dark cycle and with free access to food and water.
(§1) For the compound treatment, mice (8 animals/group) received subcutaneous implants of extended release depot pellets containing P21 or P22 at 25 nmol/day for 35 days of continuous dosing (Innovative Research of America, USA). For the control group (8 animals), pellets consisted of the carrier polymer only. Mice were anesthetized with 2.5% Avertin (0.38 ml for a 25 g animal). Under sterile conditions, pellets were implanted subcutaneously along the anterolateral aspect of the right shoulder with a precision trochar (Innovative Research of America). After recovery of anesthesia, animals were transferred to the animal colony. No complications associated with the implantation and treatment were observed. All procedures on animals were conducted in accordance with approved protocols from our Institutional Animal Welfare Committee.
The physical state and condition of animals were carefully monitored throughout the treatment by evaluating grooming, physical state and clasping reflex. Body weight was also recorded.
The test used was an adaptation of the procedure previously described by Sargolini and collaborators (Sargolini, F., et al. Behav Brain Res 138 (2003):153-63). The testing apparatus was a classic open field (i.e. a PVC square arena, 50×50 cm, with walls 40 cm high). The open field was placed in a part of the room separated from the experimentator with a black opaque curtain. The open field was surmounted by a video camera connected to a computer. Three objects were employed in this task. The general procedure consisted of three different phases: a familiarization phase (1 session of 20 min), a sample phase, and a test phase. On the first days, mice were individually submitted to the familiarization session during which they were introduced in the empty arena in order to become familiar with the apparatus. This familiarization session allowed to record a baseline level of locomotor activity (measuring the distance covered in the open field) and of anxiety (measuring the time the animals spent in the centre of the arena during the first five minutes). On the second day each mouse was first submitted to the sample phase (session 1, ten minutes) for which two identical objects were placed in a symmetric position from the centre of the arena. After a 15 minute delay during which the mouse returned to its home cage, it was reintroduced in the arena to perform the test phase (session 2, 10 min). The mouse was then exposed to two objects: a familiar object (previously presented during the sample phase) and a new object, placed at the same location as during the sample phase. Data collection was performed using a video tracking system (Smart version 2.0.14 software, Pan Lab/San Diego Instruments). Object discrimination was calculated as follows: OD=(time spent close to new object)/(time spent close to new object)+(time spent close to old object)×100

normal adult mice [2] = test: One-trial object recognition test; assay type: in vivo; settings: 25 nmol/day, test phase after 15 minute delay
Method: as §1
In the one-trial object recognition task, animals are exposed to two different objects which they have to identify as novel or familiar based on the memory of an earlier experience with one of the two objects they encountered in the same open field. The familiar object is explored shorter than the novel encountered one because the representation of the former is still available in memory. The one-trial object recognition task tests some aspects of episodic memory but is limited to memory of an object (what), the location of an object (where), and the context in which it was encountered (which). However, the temporal dimension of the episode remains inaccessible to the experimentator, and because of this reason this task in animals is considered a test of short term memory.
(§2) The test used was an adaptation of the procedure previously described by Sargolini and collaborators (Sargolini, F., et al. Behav Brain Res 138 (2003):153-63). The testing apparatus was a classic open field (i.e. a PVC square arena, 50×50 cm, with walls 40 cm high). […] Object discrimination was calculated as follows: OD=(time spent close to new object)/(time spent close to new object)+(time spent close to old object)×100

[3] = test system: adult hippocampal progenitors in the dentate gyrus; test: Neurogenesis in the DG (BrdU-positive and BrdU/NeuN-double-positive cells); assay type: in vivo, mice; settings: 25 nmol/day for 35 days
Method: as §1
To investigate neurogenesis, BrdU (Sigma, USA) was given as two daily i.p. injections (100 mg/kg/dose) for five days starting on day 2 of compounds treatment.
At the end of the behavioral experiment, animals were anesthetized with an overdose of sodium pentobarbital (120 mg/kg) and transcardially perfused with 0.1 M phosphate buffered saline (PBS). After perfusion, the brains were removed from the skull, the left hemisphere was immediately frozen for future biochemical analysis and the right hemisphere was immersion fixed in 4% paraformaldehyde in 0.1 M PBS for at least 24 hours at room temperature. Tissues were equilibrated and stored in 30% sucrose solution at 4° C. until sectioning. The brains were sectioned sagittaly on a freezing sliding microtome at 40 μm through the entire hippocampus and the sections were stored in glycol anti-freeze solution (Ethylene glycol, glycerol and 0.1 M PBS in 3:3:4 ratio) at −20° C. until further processing.
For double labeling of BrdU and NeuN, brain sections were pretreated with 2 M HCl at 37° C. for 30 min and neutralized with 0.1 M borate buffer (pH 8.5) for 10 minutes. […]
Neurogenesis in the dentate gyrus was evaluated by counting the number of BrdU-positive and BrdU/NeuN-double-positive cells in the dentate gyrus (DG). The number of positive cells was determined in every fifth section in a series of 40 μm sagittal sections throughout the DG using unbiased sterology. All BrdU-positive cells in the subgranular zone (SGZ) and granule cell layer (GCL) were counted using a fluorescent microscope (Nikon Eclipse 90i, Nikon Corporation, Japan). Double labeled cells were assessed by a confocal imaging system (D-Eclipse C1, Nikon Corporation). […] For each brain, at least 100 cells were counted based on coefficient of error determinations.

normal adult mice [4] = test: Open field, time in the centre of the arena (anxiety); assay type: in vivo; settings: 25 nmol/day, first five minutes of familiarization session
Method: as §1
as §2, with “high). The open field was placed in a part of the room separated from the experimentator with a black opaque curtain.” for “high).”

[5] = General examination (physical state, body weight, exploratory activity, swim speed, floating); assay type: in vivo, mice; settings: 25 nmol/day for 35 days; remark: listed apart in the source
normal adult mice [6] = test: Spatial reference memory task in the water maze; assay type: in vivo
Method: as §1
Spatial reference learning and memory were evaluated in the water maze using a procedure adapted from that previously described by Morris et al. (Morris, R. G., et al. Nature 297 (1982): 681-3). The test required that mice used a spatial navigational strategy based on a spatial representation of the environment to find a fixed submerged escape platform. The procedure was performed in a 180 cm diameter circular tank. The pool was filled with water (21±1° C.) made opaque by adding white non-toxic paint. Acquisition started with the escape platform (15 cm diameter submerged 1 cm below water surface) in the Northwest quadrant and each animal was given 90 s to find the platform. […] At the end of each trial, the mouse was left on the platform for 20 seconds, then dried and returned to its home cage until the next trial. Five such acquisition trials were given on each day for four consecutive days. A test for retention, or probe trial (PT), was given 24 hours later. During the probe trial the mouse was allowed to swim in the tank without the escape platform for 60 seconds. This was followed by second and third probe trials 15 and 30 days after the first probe trial.
The measures of learning were the time and distance covered to reach the escape platform. For the probe trial, the tank was divided into four imaginary quadrants and a small zone where the escape platform had been. The measure of retention was calculated as the ratio of time spent or distance covered in target quadrant over that in the three other quadrants.
Mouse behavior in the water maze was monitored by a Samsung Digital Camera (SDC 4304) mounted to the ceiling and tracked and timed by a SMART (Pan Lab/San Diego Instruments) version 2.0.14 software.

AHPs = test: Cell-based assay for differentiation of AHPs with CNTF (βIII-tubulin/DAPI); settings: 1 hr fixation
Method: βIII-tubulin antigenicity is compromised by fixation, although longer fixation improves attachment to the plates. Therefore, plates with different coatings for their suitability to be used in differentiation assay using CNTF (0.1, 1, 10, 100 ng/ml) were tested. Coating matrices tested: • poly D-lysine • poly D-lysine/laminin • poly L-ornithine/laminin • polyethyleneimine • collagen I • fibronectin The best immunostaining for βIII-tubulin was with 10 min fixation. However, since less cells were lost with 1 hr fixation, the differentiation assay with CNTF was performed with 1 hr fixation. The best differentiation was achieved on polyethyleneimine coated plates using the ratio of βIII-tubulin immunostaining to DAPI nuclear staining (cell number) as % of control as a relative measure of differentiation.

[7] = cited from earlier work
[8] = test system: embryonic chick ciliary neurons; settings: embryonic chick ciliary neurons in culture; cited from earlier work
human CNTF receptor = target: T1, human CNTF receptor (Homo sapiens, UniProt P26992); settings: cited from earlier work
T1 sequence (P26992 23-342): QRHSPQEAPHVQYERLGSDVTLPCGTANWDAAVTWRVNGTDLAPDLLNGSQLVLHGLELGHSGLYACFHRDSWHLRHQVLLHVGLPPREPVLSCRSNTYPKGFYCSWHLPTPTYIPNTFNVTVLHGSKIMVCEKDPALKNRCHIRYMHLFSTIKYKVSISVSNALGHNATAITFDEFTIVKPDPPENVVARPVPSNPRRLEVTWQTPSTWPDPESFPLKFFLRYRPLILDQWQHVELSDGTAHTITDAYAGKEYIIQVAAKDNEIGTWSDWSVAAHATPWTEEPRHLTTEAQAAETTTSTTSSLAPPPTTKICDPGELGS

For `CC(C)C[C@H](NC(=O)CNC(=O)CNC(=O)[C@H](CC(=O)O)NC(=O)C12CC3CC(CC(C3)C1)C2)C(=O)NC12CC3CC(C1)CC(C(N)=O)(C3)C2` [Peptide P22, 1-AdCO-DGGL^AG-NH2] (Adamantane1carbonyl-DGGL-X1), the “exploratory behavior / exploratory activity” value ([1]; open field) was “no alteration; also recorded: did not induce any effect”, the body weight ([1]; subcutaneous pellets) was “no alteration; also recorded: did not induce any effect” and the general physical state ([1]; subcutaneous pellets) was “no alteration”. The “time exploring the new object versus the familiar object” value (normal adult mice [2]) was “did not preferentially explore the novel object”, the “BrdU positive cells in the DG (GCL and SGZ)” value [3] was “No significant alteration in neurogenesis” and the “BrdU/NeuN positive cells in the DG (GCL)” value [3] was “No significant changes”. For the same molecule, the “level of anxiety (time in the center of the open field)” value (normal adult mice [4]) was “spent more time in the center of the open field than control animals; also recorded: reduced anxiety level”, the “floating behavior in the water maze task (sign of depression or locomotor impairment)” value [5] was “no floating behavior was observed” and the swim speed ([5]; water maze) was “no alteration; also recorded: did not induce any effect”. The “effect in the probe trials” value (normal adult mice [6]; three probe trials) was “No statistically significant effect” and the “escape latencies to reach the submerged platform (learning)” value (normal adult mice [6]; training day 2 to 4, compared to control group) was “significantly reduced; also recorded: increased performance in the learning of spatial memory task”.

B1: CNTF: Ciliary neurotrophic factor, a survival factor for various neuronal cell types; 200 amino acid protein (protein, UniProt P26441 1-200, looked up)
chain: MAFTEHSPLTPHRRDLCSRSIWLARKIRSDLTALTESYVKHQGLNKNINLDSADGMPVASTDQWSELTEAERLQENLQAYRTFHVLLARLLEDQQVHFTPTEGDFHQAIHTLLLQVAAFAYQIEELMILLEYKIPRNEADGMPINVGDGGLFEKKLWGLKVLQELSQWTVRSIHDLRFISSHQTGIPARGSHYIANNKKM
modifications: full-length
notes: Ciliary neurotrophic factor, a survival factor for various neuronal cell types; 200 amino acid protein
With B1 the “βIII-tu/DAPI (% of Control) (100 ng/ml CNTF)” value (“βIII-tu/DAPI (% of Control)” below) (AHPs; coating poly D-lysine) was 175 % of Control, the “βIII-tu/DAPI (% of Control)” value (AHPs; coating poly D-lysine/laminin) was 240 % of Control and the “βIII-tu/DAPI (% of Control)” value (AHPs; coating poly L-ornithine/laminin) was 330 % of Control. For the same molecule, the “βIII-tu/DAPI (% of Control)” value (AHPs; coating poly ethyleneimine) was 480 % of Control and the “side effects of administration in human clinical trials” value [7] was “anorexia, skeletal muscle loss, hyperalgesia, cramps, and muscle pain”.

B2: recombinant rat CNTF: recombinant rat ciliary neurotrophic factor (protein, UniProt P20294 1-200, looked up)
Ciliary neurotrophic factor: MAFAEQTPLTLHRRDLCSRSIWLARKIRSDLTALMESYVKHQGLNKNINLDSVDGVPVASTDRWSEMTEAERLQENLQAYRTFQGMLTKLLEDQRVHFTPTEGDFHQAIHTLMLQVSAFAYQLEELMVLLEQKIPENEADGMPATVGDGGLFEKKLWGLKVLQELSQWTVRSIHDLRVISSHQMGISALESHYGAKDKQM
For B2, the “biological activity in supporting survival and neurite outgrowth, relative to recombinant human CNTF” value [8] is listed as “four times better” and the “affinity for the human CNTF receptor relative to human CNTF” value (human CNTF receptor) is listed as “higher affinity”.
